Measurements as given in ChEMBL document CHEMBL4831514, “Novel betulin dicarboxylic acid ester derivatives as potent antiviral agents: Design, synthesis, biological evaluation, structure-activity relationship and in-silico study” (Eur J Med Chem, 2021).

Tests used:
Influenza A virus [1] = assay: (§1) Potency index, ratio of oseltamivir EC50 to test compound EC50 for antiviral activity against Influenza A virus H1N1 (A/PR/8/34) infected in MDCK cells assessed as reduction in virus titer treated 1 hr post viral infection followed by replacement with fresh medium with compounds and measured after 72 hrs by MTT assay; assay type: functional
[2] = as §1, with “Selectivity” for “Potency”, “CC50 for cytotoxicity against dog MDCK cells” for “oseltamivir EC50”, “to” for “to test compound”; assay type: toxicity, cell-based; conditions: read-out: Selectivity Index
Influenza A virus [3] = assay: Antiviral activity against Influenza A virus H1N1 (A/PR/8/34) infected in MDCK cells assessed as reduction in virus titer treated 1 hr post viral infection followed by replacement with fresh medium with compounds and measured after 72 hrs by MTT assay; assay type: functional, organism-based; conditions: H1N1 A/PR/8/34, MDCK

SMILES	Ratio EC50 (Influenza A virus [1])	selectivity ratio at 72 h [2]	EC50 (Influenza A virus [3])
C#CC1(NC(=O)/C(C)=C/C(=O)OC[C@]23CC[C@@H](C(=C)C)[C@@H]2[C@H]2CC[C@@H]4[C@@]5(C)CC[C@H](O)C(C)(C)[C@@H]5CC[C@@]4(C)[C@]2(C)CC3)CCCCC1	3	2	27.2 µM
C=C(C)[C@@H]1CC[C@]2(COC(=O)CSCC(=O)O)CC[C@]3(C)[C@H](CC[C@@H]4[C@@]5(C)CC[C@H](O)C(C)(C)[C@@H]5CC[C@]43C)[C@@H]12	3	2	21.1 µM
CCOC(=O)C1=C[C@@H](OC(CC)CC)[C@H](NC(C)=O)[C@@H](N)C1 [OSELTAMIVIR]		98.2	80.1 µM
